According to PMC7366380, “Discovery of a Potent and Selective Covalent Inhibitor and Activity-Based Probe for the Deubiquitylating Enzyme UCHL1, with Antifibrotic Activity” (Journal of the American Chemical Society, 2020):

Tests used:
20 DUBs = assay: Biochemical DUB selectivity profiling (FP and FI assays), whole panel
USP25 = biological target: T1, USP25 (Homo sapiens, UniProt Q9UHP3); assay: Biochemical DUB selectivity profiling assay: USP25; conditions: Ub-Lys-TAMRA 50 nM, buffer B; read-out: Biochemical IC50 range, USP25
T1 sequence (Q9UHP3 1-1055): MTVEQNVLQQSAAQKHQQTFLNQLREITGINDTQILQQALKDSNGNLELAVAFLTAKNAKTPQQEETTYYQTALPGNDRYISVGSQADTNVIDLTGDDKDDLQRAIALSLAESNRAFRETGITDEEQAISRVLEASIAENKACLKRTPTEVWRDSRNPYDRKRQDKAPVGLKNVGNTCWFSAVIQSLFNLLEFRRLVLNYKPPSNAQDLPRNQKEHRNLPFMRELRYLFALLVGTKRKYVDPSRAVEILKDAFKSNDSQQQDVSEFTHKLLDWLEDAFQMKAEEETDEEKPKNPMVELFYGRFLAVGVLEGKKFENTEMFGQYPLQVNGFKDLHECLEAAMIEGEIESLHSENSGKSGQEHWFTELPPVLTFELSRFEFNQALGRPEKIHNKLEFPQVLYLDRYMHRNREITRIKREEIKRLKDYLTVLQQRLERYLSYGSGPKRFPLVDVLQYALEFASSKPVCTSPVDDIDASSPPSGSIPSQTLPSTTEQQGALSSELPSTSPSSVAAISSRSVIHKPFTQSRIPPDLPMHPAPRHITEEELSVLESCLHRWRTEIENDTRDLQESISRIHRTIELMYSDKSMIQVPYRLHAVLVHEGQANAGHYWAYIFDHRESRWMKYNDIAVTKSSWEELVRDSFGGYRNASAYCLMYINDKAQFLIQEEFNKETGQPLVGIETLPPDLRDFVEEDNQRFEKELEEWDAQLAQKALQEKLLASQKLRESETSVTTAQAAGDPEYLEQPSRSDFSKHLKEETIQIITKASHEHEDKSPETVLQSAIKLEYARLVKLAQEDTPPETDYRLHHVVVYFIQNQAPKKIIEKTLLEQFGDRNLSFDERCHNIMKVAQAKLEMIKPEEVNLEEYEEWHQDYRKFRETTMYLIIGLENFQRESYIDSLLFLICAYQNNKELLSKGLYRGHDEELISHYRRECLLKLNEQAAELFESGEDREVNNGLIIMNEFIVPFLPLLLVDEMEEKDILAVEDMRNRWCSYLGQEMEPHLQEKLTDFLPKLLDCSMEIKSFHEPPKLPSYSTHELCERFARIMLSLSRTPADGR
Experimental: DUB Assay Substrate Substrate
Buffer Concentration (nM) […]
Sepharose® 4B resin (GE Healthcare).
10 kDa molecular weight cut-off (MWCO)).
Fractions containing protein
Protein concentration was […]
reaction volume of 21 μL. […]
compound (final concentration 5 nM).
IC50 values were determined
Biochemical DUB selectivity profiling assays […]
in 40 µL total reaction volume.

FLAG-UCHL1 = biological target: T2, FLAG-UCHL1 (Homo sapiens, UniProt P09936); assay: HTRF in-cell UCHL1 activity assay with HA-Ub-VME in Cal51 cells; format: cell-based; conditions: Cal51 cells stably expressing FLAG-UCHL1, 1 h, HA-Ub-VME 100 nM
T2 construct: expressed in transfected cells
T2 sequence (P09936 1-223): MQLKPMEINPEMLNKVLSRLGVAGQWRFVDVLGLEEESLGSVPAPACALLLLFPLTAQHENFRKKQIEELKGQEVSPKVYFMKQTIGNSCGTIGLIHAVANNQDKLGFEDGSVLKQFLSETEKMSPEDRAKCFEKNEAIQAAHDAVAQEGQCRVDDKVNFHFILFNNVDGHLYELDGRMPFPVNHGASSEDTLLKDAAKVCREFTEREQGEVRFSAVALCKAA

| SMILES | activity/selectivity in cross-screening against 20 DUBs (20 DUBs) | IC50 (USP25) | IC50 (FLAG-UCHL1) |
| --- | --- | --- | --- |
| N#CN1CCC[C@H]1C(=O)N1CCc2c(-c3c[nH]c4ncccc34)cccc21 [Compound 1] | exquisite selectivity | > 10 µM | 0.82 µM |
| C#Cc1cnc2[nH]cc(-c3cccc4c3CCN4C(=O)[C@@H]3CCCN3C#N)c2c1 [Compound 2] |  | > 10 µM | 0.11 µM |
| N#CN1CCC[C@@H]1C(=O)N1CCc2c(-c3c[nH]c4ncccc34)cccc21 [Compound 3] | inactive | > 10 µM | 23 µM |
| CC(=O)O/N=C1\C(=O)N(Cc2cc(Cl)ccc2Cl)c2ccc(Cl)cc21 [LDN-57444, reference compound] |  | > 10 µM |  |
